Measured values: paper PMC8292346, “Dysfunction of the key ferroptosis-surveilling systems hypersensitizes mice to tubular necrosis during acute kidney injury” (Nature Communications, 2021)
Where “and” joins values, the source holds several entries; their conditions need not be identical. Identical values can stand only once. Entries after “also recorded” stand apart in the source; their conditions may differ.

Legend:
[1] = test system: freshly isolated primary murine renal tubules; test: RSL3-induced LDH release of freshly isolated kidney tubules; format: cell-based; settings: RSL3 2 h; for LDH release: freshly isolated kidney tubules, 5 mM glycine, alone (DMSO) or with Fer-1 or Nec-1f; for Effect on RSL3-induced LDH release: freshly isolated tubules, glycine medium
Procedure: The LDH release of cells or of freshly isolated kidney tubules was measured according to manufacturers’ instructions at indicated time points. In brief, an aliquot of the supernatant was taken and Lysis Solution was added for 45 min to induce maximal LDH release before another aliquot of the supernatant was taken. Subsequently, the supernatants were incubated with CytoTox 96® Reagent for 15 min protected from light at room temperature before adding Stop Solution. Absorbance was measured at 490 nm.
Primary murine renal tubules were isolated following a modified previously established protocol. […] Kidney slices of each kidney were transferred in 2 ml reaction tube containing 2 mg/ml collagenase type II in incubation solution (48 μg/ml trypsin inhibitor, 25 μg/ml DNAse I, 140 mM NaCl, 0.4 mM KH2PO4, 1.6 mM K2HPO4 · 3 H2O, 1 mM MgSO4 · 7 H2O, 10 mM CH3COONa · 3 H2O, 1 mM α-ketoglytarate and 1.3 mM Ca-gluconate) and digested for 5 min at 37 °C, 850 rpm. Due to the presence of damaged tubules, the first resulting supernatant was discarded and 1 ml of 2 mg/ml collagenase type II in incubation solution was added to the kidney slices and digested for 5 min at 37 °C, 850 rpm. The supernatant was collected and transferred in a 2 ml reaction tube containing 1 ml ice-cold sorting solution (0.5 mg/ml bovine albumin in incubation solution). The reaction tubes were left on ice for the tubules to precipitate. The supernatant was removed and the tubules were washed twice with ice-cold incubation solution. Once the tubules precipitated the supernatant was removed and the ice-cold sorting solution was added (the volume was adjusted depending on the number of samples needed for the experiment). Tubules were distributed in a twenty-four-well plate containing Dulbecco’s Modified Eagle Medium F-12 Nutrient Mixture without phenol red (DMEM/F12, Thermo Fisher), supplemented with 0.01 mg/ml recombinant human insulin, 5.5 μg/ml human transferrin, 0.005 μg/ml sodium selenite (Na2SeO3) (ITS without linoleic acid, Sigma Aldrich), 50 nM hydrocortisone, 100 U/ml penicillin, and 100 μg/ml streptomycin (Pen/Strep, Thermo Fisher).
All of the experiments performed contain a negative control to assess LDH release at 0 h of incubation as a quality control. No more than 10% LDH release in these negative controls was tolerated. […] Isolated murine renal tubules were placed in twenty four-well plates containing the respective agents diluted in Dulbecco’s Modified Eagle Medium F-12 Nutrient Mixture without phenol red (DMEM/F12, Thermo Fisher), supplemented with 0.01 mg/ml recombinant human insulin, 5.5 μg/ml human transferrin, 0.005 μg/ml Na2SeO3 (ITS without linoleic acid, Sigma Aldrich), 50 nM hydrocortisone, 100 U/ml penicillin, and 100 μg/ml streptomycin (Pen/Strep, Thermo Fisher). […]

MLKL = test: Western blot of pMLKL (S358) in TSZ-treated HT29 cells; format: cell-based, human; settings: Nec-1s 10 µM, Fer-1 1 µM, Nec-1f 10 µM
Procedure: (§1) To induce necroptosis in a human cell line, HT29 cells were stimulated at the indicated time points with 20 ng/ml human TNFα (Biolegend), 1 μM SMAC-mimetics (Birinapant, Chemietek), and 20 μM zVAD-fmk (Selleckchem, herein referred to as zVAD). For the induction of necroptosis in NIH3T3 cells, cells were incubated with 20 ng/ml TNF-α and 20 μM zVAD for indicated time points. […] Cells were seeded in six-well plates or petri dishes. […] After indicated time points, cells were collected and prepared for flow cytometry, immunoblotting, and/or LDH release assays.
(§2) Cells were lysed in ice-cold 10 mM Tris-HCl, pH 7.5, 50 mM NaCl, 1% Triton X-100, 30 mM sodium pyrophosphate, 50 mM NaF, 100 μM Na3VO4, 2 μM ZnCl2, and 1 mM phenylmethylsulfonyl fluoride (PMSF, modified Frackelton buffer) for 30 min on ice. Insoluble material was removed by centrifugation (14 000×g, 30 min, 4 °C). Protein concentration was determined using a commercial Bradford assay kit according to the manufacturer’s instructions (Thermo Fisher). Equal amounts of protein (typically 30 μg per lane) were resolved on a 4%−15% gradient SDS/PAGE gel and transferred to a PVDF membrane (BIO-RAD). Primary antibody incubation was performed for anti-pS166-RIPK1 (Cell Signaling, Cat# 65746, 1:1000 dilution), anti-pS358-MLKL, (Abcam, ab187091, 1:1000 dilution), anti-MLKL (Genetex, GTX107538, 1:1000 dilution) and anti-β-Actin (Cell Signaling, Cat# 3700S, 1:1000 dilution). Secondary antibodies (anti-mouse, HRP-linked antibody, Cell Signaling, Cat# 7076S; anti-rabbit, HRP-linked antibody, Cell Signaling, Cat# 7074S) were applied at concentrations of 1:5.000 (also see Supplementary Table 1 for details). Proteins were then visualized by enhanced chemiluminescence (ECL; Amersham Biosciences).

RIPK1 = test: Western blot of pRIPK1 (S166) in TSZ-treated HT29 cells; format: cell-based, human; settings: Nec-1s 10 µM, Fer-1 1 µM, Nec-1f 10 µM
Procedure: as §1, §2

CD10-135 cells = test: FINs/ferroptocide, LDH release assay; format: cell-based, human; design: LDH release: unit not given here; settings: for LDH release: Nec-1f 30 µM
HT1080 cells = test: Ferroptosis inducers (FINs)/ferroptocide, 7-AAD/annexin V flow cytometry; format: cell-based, human; settings: for double-negative events (7-AAD/annexin V): alone (DMSO) or with Fer-1 1 µM; for double-negative events (7-AAD/annexin V) / Inhibition of cell death induction by FINs/ferroptocide: Nec-1s 30 µM, Nec-1f 30 µM; for Inhibition of cell death induction by FINs/ferroptocide: Fer-1 1 µM
NIH3T3 cells = test: Simultaneous ferroptosis and necroptosis (RSL3 plus TZ), 7-AAD/annexin V flow cytometry; format: cell-based, murine; settings: for Rescue from necrosis induced by RSL3 plus TZ: NIH3T3, 16 h
Procedure: as §1
Cells were harvested and the pellets were washed twice in PBS and stained with 5 μl of 7-AAD (BD Biosciences) and 5 μl of annexin-V-FITC (BD Biosciences) added to 100 μl annexin-V binding buffer (BD Biosciences). After 15 min, cells were recorded on the LSRII with the FACS Diva 6.1.1 software (BD Biosciences) and subsequently analyzed with the FlowJo v10 software (Tree Star).

[2] = CD10-135, FIN56 alone (FIN) or with Fer-1, Nec-1s
[3] = CD10-135, FINO2 alone (FIN) or with Fer-1, Nec-1s
[4] = CD10-135, RSL3 alone (FIN) or with Fer-1, Nec-1s
[5] = CD10-135, ferroptocide alone (FIN) or with Fer-1, Nec-1s

SMILES	LDH release [1]	Effect on RSL3-induced LDH release [1]	Phosphorylation of MLKL (pS358), western blot (MLKL)	Phosphorylation of RIPK1 at S166, western blot (RIPK1)	LDH release (CD10-135 cells; [2])	LDH release (CD10-135 cells; [3])	LDH release (CD10-135 cells; [4])	LDH release (CD10-135 cells; CD10-135, erastin alone (FIN) or with Fer-1, Nec-1s)	LDH release (CD10-135 cells; [5])	Effect on FIN-induced LDH release (CD10-135 cells; CD10-135 cells)	Prevention of FINO2-induced ferroptosis (HT1080 cells; HT1080)	double-negative events (7-AAD/annexin V) (HT1080 cells; HT1080, 1.13 µM RSL3 6 h)	double-negative events (7-AAD/annexin V) (HT1080 cells; HT1080, 10 µM FIN56 24 h)	double-negative events (7-AAD/annexin V) (HT1080 cells; HT1080, 10 µM FINO2 24 h)	Inhibition of cell death induction by FINs/ferroptocide (HT1080 cells; HT1080)	Rescue from necrosis induced by RSL3 plus TZ (NIH3T3 cells)	7-AAD/annexin V flow cytometry, source data of bar graph Fig3c (NIH3T3 cells; NIH3T3, RSL3 (1.13 µM) + TZ 16 h with inhibitor)	Effect on the phenotype induced by ferroptocide (CD10-135 cells; CD10-135 cells)	double-negative events (7-AAD/annexin V) (HT1080 cells; HT1080, 5 µM erastin 24 h)	double-negative events (7-AAD/annexin V) (HT1080 cells; HT1080, 10 µM ferroptocide 24 h)
CN1C(=O)C(Cc2c[nH]c3c(Cl)cccc23)NC1=S (stereo not shown) [Nec-1f]	18.43% and 23.14% and 28.56%	reduction of LDH release; also recorded: significantly attenuated	prevented phosphorylation	prevented phosphorylation at S166 in RIPK1	25.01 and 21.5704 and 29.6875	27.07 and 34.1078 and 34.3349	36.35 and 26.8291	25.13 and 17.5 and 32.5	89.05 and 90.3713	reversed	less effective	88% and 71.9% and 83.1% and 89.5%	82.6% and 86.1% and 84.4%	80.8% and 51.5% and 65.9% and 53.8%	inhibition of cell death induction	Nec-1f does; also recorded: maintained cell viability	75.7% and 76% and 68%			
CCOC(=O)c1ccc(NC2CCCCC2)c(N)c1 [Fer-1, ferrostatin-1]	22.94% and 23.84% and 16.99%	significantly attenuated	did not prevent MLKL-phosphorylation	RIPK1 S166 phorphorylation was increased	8.38 and 8.509 and 10.9286	8.33 and 7.093 and 7.5109	6.44 and 3.43		30.26 and 29.1563	reversed		92.2% and 77.7% and 91.5% and 91%	88.3% and 93.1% and 90%	90.8% and 87.7% and 89.4%	inhibition of cell death induction	fail to rescue		reversed the phenotype	91.8% and 92.7%	71.3% and 77%
